Key:
MCF-7 cells = test: Tritiated thymidine incorporation (proliferation) in MCF-7 cells; format: cell-based, human; settings: 48 h
Method: (§1) After seeding, cells were cultured for 24 h in serum and phenol red free medium. Then treatments were carried out in a phenol red free medium containing 5% dextran-charcoal stripped serum. Cells were treated with P or DEX (100 nM), alone or in combination with UPA, RU (1 nM to 1 μM) or CDB-3877 (100 nM). Control cells were treated with ethanol, at […] 1:1000 final ethanol concentration alone as vehicle or E2 (10 nM).
(§2) After 24 h of hormonal treatment, cells were incubated with [methyl-1 3H] thymidine (Perkin Elmer, Courtaboeuf, France) for 48 h or 20 h for KBE or cancer cells, respectively at 37° C. After incubation cells were washed twice with PBS 1× and once with 5% trichloroacetic acid (TCA). Cells were incubated in 5% TCA for 15 min at 4° C. and lysed in NaOH 0.1 N for 30 min at 37° C. The total cell lysate was added to 5 ml of Ecolite scintillation liquid (MP biomedical, Illkirch, France) and radioactivity was counted with a β-counter HIDEX 300SL (ScienceTec, Courtaboeuf, France).

[1] = test system: GR target genes (IEX-1, G0S8, cyclin A, BCL2); test: qRT-PCR mRNA expression of GR target genes in HBE cells; format: cell-based, human
Method: as §1
Total RNA was extracted using TriZOL Reagent (Invitrogen, Cergy-Pontoise, France).
2 μg of total RNA was subjected to reverse transcription (RT) using random primers for 1 h at 37° C. 2 μl of RT product was diluted (1:10) and subjected to quantitative PCR using sequence specific primers (300 nM) and Brillant SYBR GREEN QPCR master mix (Fermentas, Saint-Rémy-lès-Chevreuse, France) on an Mx3000P apparatus (Agilent Technologies, Massy, France). Conditions were 1 cycle at 95° C. for 10 min followed by 40 cycles at 95° C. for 30 sec, 60° C. for 1 min and 72° C. for 30 sec. Gene expression values were normalized to the housekeeping gene 36B4. Time of steroid treatment was chosen to get the optimal stimulation for a given gene. ALPL and G0S8 mRNA were analyzed after 6 h of treatment. IEX-1, FASN, and BCL2 were analyzed after 24 h of treatment. Cyclin A mRNA was analyzed after 24 h for GR responses or 48 h for PR responses.

[2] = Hormone concentrations in serum of pellet-treated athymic mice; format: in vivo; settings: female, NMRI nu/nu athymic, mouse, other: steroid pellets grafted onto the neck, 20 mg pellet (P from day 14, UPA from day 1), day 28, read-out: concentration in mice serum (mean±SEM)
Method: Four weeks old ovariectomized female NMRInu/nu 20 athymic mice were purchased from Janvier laboratory (Le Genest Saint Isle, France). Breast tissues samples were obtained from 6 women (aged 29-42 years). Human mammary gland tissue was cut into 2×2×2 mm fragments and 4 fragments were then subcutaneously xenografted onto the back of 4 mice per group. Four treatment groups were performed: control, E2, E2+P and E2+P+UPA. Treatments were administered by grafting steroid pellets onto the neck of each mouse. The experimental conditions were initially determined by using a dose range of hormones mixed with cholesterol into the pellets. Blood sample assays were performed after 2 weeks and 4 weeks of treatment to measure plasmatic hormonal concentrations. Finally, the dose of 0.3 mg for E2 and 20 mg for P and UPA were used, as it provides the expected blood concentrations. For the control groups, pellets containing only cholesterol were used. To reproduce menstrual cycle conditions, mice were grafted on the first day of experiment with cholesterol, E2 and/or UPA containing pellets and on the fourteen day with cholesterol or progesterone containing pellets in control and E2 groups, or in E+P and E2+P+UPA groups, respectively. Twenty eight days after the start of experiment, mice were sacrificed. Blood was collected for each mouse, and serum was frozen at −20° C. until hormone concentrations
Estradiol was measured by radioimmunoassay using Clinical Assays Estradiol-2 (Sorin Biomedica Diagnostics SpA, Saluggia, Italia). Progesterone levels were evaluated by UPLC-MSMS using Acquity UPLC and Quattro Premier XE (Waters, Milford Mass., USA).
UPA concentrations were measured using LC-MS/MS technique by MPI Research (State College, Pa., USA).

T-47D cells = test: Tritiated thymidine incorporation (proliferation) in T-47D cells; format: cell-based, human; settings: 48 h
Method: as §1, §2

CC(=O)O[C@]1(C(C)=O)CCC2C3CCC4=CC(=O)CCC4=C3[C@@H](c3ccc(N(C)C)cc3)C[C@@]21C (stereo partly shown) [UPA, 17[…]-acetoxy-11[…]-[4-N,N-dimethylamino-phenyl)-19-norpregna-4,9-diene-3,20-dione]
cell proliferation ([3H] thymidine incorporation), compound alone (MCF-7 cells; 100 nM): had no effect on proliferation | effect of UPA on DEX-mediated proliferation change (MCF-7 cells; DEX 100 nM + UPA 100 nM): tended to prevent the weak anti-proliferative effects of DEX | G0S8 mRNA expression ([1]; DEX and/or UPA 100 nM, 6 h): slight and non-significant antagonist effect | BCL2 mRNA expression (GR response) ([1]; DEX and/or UPA 100 nM, 24 h): did not reverse the DEX down-regulation of BCL2 mRNA | IEX-1 mRNA expression ([1]; DEX and/or UPA 100 nM, 24 h): did not antagonize this response | cyclin A mRNA expression (GR response) ([1]; DEX and/or UPA 100 nM, 24 h): partially inhibited DEX effect on cyclin A mRNA expression | glucocorticoid agonist activity on GR target genes ([1]; UPA 100 nM alone): did not display any glucocorticoid agonist activity | concentration at 28 days [2]: 63.5 ± 10.5 ng/mL | cell proliferation ([3H] thymidine incorporation), compound alone (T-47D cells; 100 nM): had no effect on proliferation | effect of UPA on P-mediated proliferation change (T-47D cells; P 100 nM + UPA 100 nM): reversed P anti-proliferative activity

— patent US9814732B2, “Ulipristal acetate for prevention and treatment of breast tumors” (LABORATOIRE HRA-PHARMA, priority 2012, dated 2017)
